Laboratory results taken from patent US20090215895A1, “Therapeutic and carrier molecules” (PEPLIN BIOLIPIDS PTY LTD, priority 2004, published 2009).

Columns and labels:
[1] = tested on: HUVEC; test: Agonist-enhanced neutrophil adherence to HUVEC; assay type: cell-based, human; conditions: 20 μmol/l, 1 hr pre-treatment, TNF 4 hr
Method: FIG. 11 is a representation showing effect of β-oxa; β-thia and natural PUFA on TNF-enhanced neutrophil adherence to HUVEC. HUVEC were pre-treated with the fatty acids (20 μmol/l) for 60 min at 37° C. before being stimulated with TNF (125 U/200 μl medium) for 4 hr at 37° C. The cells were then co-incubated with neutrophils (5×10^5 cells/well) at 37° C. for 30 min and the degree of neutrophil adherence quantitated. The results are expressed as % of control and represent the mean±SEM of three separate experiments each performed in triplicate. * p<0.05, ***p<0.001, for significant differences between pre-treatment with fatty acid and control (one-way analysis of variance followed by the Dunnett test for multiple comparisons).
Adhesion of neutrophils, prepared by the rapid-single-step method (Ferrante et al, J. Immun. Methods 36:109-117, 1980), to HUVEC isolated from umbilical cords was carried out essentially as described (Huang et al, 1997 supra).
The magnitude of the suppressive effect of -MP3 was dependent on-pre-treatment time and concentration with significant effects observed with a pre-treatment time of 1 hr and a concentration of ≧5 μmol/l.

[2] = Formalin-induced pain test (hind paw licking time); assay type: in vivo; conditions: 30 min prior to formalin, mean of 5 animals
Method: Investigations of the effects of PT2 on pain induced by phenylquinolic acid (PQ writhing) and formalin have been made. In both the PQ writhing test (FIG. 3) and the formalin algesia test (FIG. 4), PT2 administered by intraperitoneal inoculation reduced pain and compared favourably with pain reduction by aspirin (oral, 100 mg/kg). In these tests, the EPUFA was administered 30 min before the pain stimulus and effects recorded over the following 20 min.
Investigations of PT2 in the formalin-induced analgesia model looking specifically at the biphasic response have also been undertaken and are shown in Table 1. It is well documented that in this model, aspirin suppresses only pain related to the inflammatory process (15-20 mins post-administration of formalin), while morphine suppresses pain in both phases of the response (0-5 min and 15-20 min).
Compounds were administered intraperationedly (ip) 30 min prior to the administration of formalin (0.02 ml, 1% solution) via subplantar injection into the right hind paw. Reduction of the induced hind paw licking time recorded during the following 0-5 min period (Phase I response) or 15-20 min period (Phase II response) was determined. The data in Table 1 are the mean responses of 5 animals in each group.

[3] = target: T1, PKC isozyme δ (Homo sapiens, UniProt Q05655); test: PMA-induced PKC translocation in HL-60 cells (Western blot); assay type: cell-based; design: key: +++: strong inhibition of PKC activation; −: no inhibition of PKC activation; conditions: 20 μM, 60 min
T1 construct: endogenous in cells; host or cells: HL-60
T1 sequence (Q05655 whole entry): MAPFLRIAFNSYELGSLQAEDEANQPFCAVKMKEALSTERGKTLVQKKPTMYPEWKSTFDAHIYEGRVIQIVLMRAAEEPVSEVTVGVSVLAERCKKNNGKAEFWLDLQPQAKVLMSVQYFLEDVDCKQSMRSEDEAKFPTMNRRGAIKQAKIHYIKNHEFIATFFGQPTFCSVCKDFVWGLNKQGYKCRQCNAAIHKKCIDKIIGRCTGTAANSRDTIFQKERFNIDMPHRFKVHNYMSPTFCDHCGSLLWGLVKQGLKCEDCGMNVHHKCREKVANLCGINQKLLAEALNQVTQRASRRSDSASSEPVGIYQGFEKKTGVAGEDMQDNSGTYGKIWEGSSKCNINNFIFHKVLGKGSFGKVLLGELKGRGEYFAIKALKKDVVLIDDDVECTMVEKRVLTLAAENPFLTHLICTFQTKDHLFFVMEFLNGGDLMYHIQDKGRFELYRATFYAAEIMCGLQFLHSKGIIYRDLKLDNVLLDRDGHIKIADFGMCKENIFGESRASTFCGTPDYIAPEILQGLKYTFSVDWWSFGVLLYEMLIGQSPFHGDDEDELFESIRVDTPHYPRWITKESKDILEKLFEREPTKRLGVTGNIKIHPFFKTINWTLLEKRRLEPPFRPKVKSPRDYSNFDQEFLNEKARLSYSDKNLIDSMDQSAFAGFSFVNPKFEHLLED
Method: (§1) The effects of nitroanalogs of PUFAs on PKC activation were determined. Lx compounds at a concentration of 20 μM were incubated with the HL-60 cell line (final condition 10^6 cells/ml) for 60 min. PKC activation was then attempted to be induced by PMA. PKC enzyme translocation was quantitated by Western blot.

[4] = target: T2, PKC isozyme ε (Homo sapiens, UniProt Q02156); test: as above; assay type: cell-based; design: key: +++: strong inhibition of PKC activation; −: no inhibition of PKC activation; conditions: 20 μM, 60 min
T2 construct: endogenous in cells; host or cells: HL-60
T2 sequence (Q02156 1-737): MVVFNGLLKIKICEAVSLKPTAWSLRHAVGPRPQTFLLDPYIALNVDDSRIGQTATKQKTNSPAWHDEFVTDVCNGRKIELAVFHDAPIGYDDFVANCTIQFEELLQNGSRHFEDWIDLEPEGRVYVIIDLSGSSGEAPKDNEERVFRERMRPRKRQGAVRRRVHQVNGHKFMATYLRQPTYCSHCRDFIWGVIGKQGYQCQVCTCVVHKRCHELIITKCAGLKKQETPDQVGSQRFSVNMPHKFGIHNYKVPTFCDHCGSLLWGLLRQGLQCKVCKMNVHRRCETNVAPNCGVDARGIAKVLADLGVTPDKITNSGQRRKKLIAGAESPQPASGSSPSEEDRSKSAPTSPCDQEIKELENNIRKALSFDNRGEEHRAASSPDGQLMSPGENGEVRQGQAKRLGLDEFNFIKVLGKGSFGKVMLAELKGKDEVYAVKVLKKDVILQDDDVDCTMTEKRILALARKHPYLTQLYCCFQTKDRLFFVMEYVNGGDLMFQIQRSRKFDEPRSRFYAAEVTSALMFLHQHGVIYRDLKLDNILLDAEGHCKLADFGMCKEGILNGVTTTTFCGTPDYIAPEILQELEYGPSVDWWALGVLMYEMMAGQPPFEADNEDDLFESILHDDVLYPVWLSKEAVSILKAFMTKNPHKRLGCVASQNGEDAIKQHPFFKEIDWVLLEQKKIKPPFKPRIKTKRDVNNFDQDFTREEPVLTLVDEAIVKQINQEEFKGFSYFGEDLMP
Method: as §1

[5] = target: T3, PKC isozyme α (Homo sapiens, UniProt P17252); test: as above; assay type: cell-based; design: key: +++: strong inhibition of PKC activation; −: no inhibition of PKC activation; conditions: 20 μM, 60 min
T3 construct: endogenous in cells; host or cells: HL-60
Method: as §1

[6] = target: T4, PKC isozyme β2 (Homo sapiens, UniProt P05771); test: as above; assay type: cell-based; design: key: +++: strong inhibition of PKC activation; −: no inhibition of PKC activation; conditions: 20 μM, 60 min
T4 construct: endogenous in cells; host or cells: HL-60
T4 sequence (P05771 1-673 isoform P05771-2): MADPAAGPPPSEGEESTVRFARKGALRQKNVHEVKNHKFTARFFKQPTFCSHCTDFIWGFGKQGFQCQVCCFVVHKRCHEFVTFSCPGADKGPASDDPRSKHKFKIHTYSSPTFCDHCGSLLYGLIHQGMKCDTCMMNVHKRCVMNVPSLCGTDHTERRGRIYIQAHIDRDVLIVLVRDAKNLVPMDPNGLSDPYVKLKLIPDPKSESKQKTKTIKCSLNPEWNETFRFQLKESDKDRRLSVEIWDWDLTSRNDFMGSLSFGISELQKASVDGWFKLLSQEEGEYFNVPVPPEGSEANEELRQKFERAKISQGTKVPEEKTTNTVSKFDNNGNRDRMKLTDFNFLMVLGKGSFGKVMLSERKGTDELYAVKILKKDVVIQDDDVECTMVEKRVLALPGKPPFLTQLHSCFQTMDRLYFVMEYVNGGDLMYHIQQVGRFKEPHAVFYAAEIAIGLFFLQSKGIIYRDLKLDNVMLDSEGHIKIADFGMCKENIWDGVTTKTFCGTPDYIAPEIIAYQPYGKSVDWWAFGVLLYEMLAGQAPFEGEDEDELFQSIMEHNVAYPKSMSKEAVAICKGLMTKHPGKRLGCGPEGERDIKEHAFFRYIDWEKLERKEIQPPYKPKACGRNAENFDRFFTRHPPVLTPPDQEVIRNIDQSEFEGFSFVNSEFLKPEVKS
Method: as §1

[7] = target: T5, PKC isozyme β1 (Homo sapiens, UniProt P05771); test: as above; assay type: cell-based; design: key: +++: strong inhibition of PKC activation; −: no inhibition of PKC activation; conditions: 20 μM, 60 min
T5 construct: endogenous in cells; host or cells: HL-60
T5 sequence (P05771 whole entry): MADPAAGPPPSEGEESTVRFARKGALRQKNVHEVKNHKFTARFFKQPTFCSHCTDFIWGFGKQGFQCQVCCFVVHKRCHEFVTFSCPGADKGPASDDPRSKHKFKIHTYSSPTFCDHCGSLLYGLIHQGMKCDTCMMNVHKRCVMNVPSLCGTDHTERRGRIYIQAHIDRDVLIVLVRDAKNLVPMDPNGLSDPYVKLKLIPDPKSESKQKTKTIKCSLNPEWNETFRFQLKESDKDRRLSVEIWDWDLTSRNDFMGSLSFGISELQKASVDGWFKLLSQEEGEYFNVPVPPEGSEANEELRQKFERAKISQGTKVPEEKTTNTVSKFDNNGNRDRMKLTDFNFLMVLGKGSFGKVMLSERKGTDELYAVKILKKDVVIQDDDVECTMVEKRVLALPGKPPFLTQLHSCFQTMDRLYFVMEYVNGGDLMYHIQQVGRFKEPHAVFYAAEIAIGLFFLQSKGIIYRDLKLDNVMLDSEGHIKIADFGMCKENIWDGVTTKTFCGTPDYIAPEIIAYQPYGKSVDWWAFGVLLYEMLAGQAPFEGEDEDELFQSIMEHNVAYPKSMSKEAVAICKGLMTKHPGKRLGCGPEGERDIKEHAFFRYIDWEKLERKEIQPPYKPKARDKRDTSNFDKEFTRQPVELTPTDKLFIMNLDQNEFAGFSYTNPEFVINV
Method: as §1

[8] = tested on: E-selectin; test: Effect of lipoxygenase/cyclooxygenase inhibitors and antioxidants on suppression of E-selectin expression by β-oxa-23:4n-6; assay type: cell-based, human; conditions: HUVEC pre-treated 15 min with inhibitor, then 20 μmol/l β-oxa-23:4n-6 60 min, TNF-α 4 h
Method: FIG. 16 is a representation showing the effects of lipoxygenase/cyclooxygenase inhibitors and antioxidants on the modulation of E-selectin expression on HUVEC by β-oxa-23:4n-6. HUVEC were pre-treated with NDGA, baicalein, MK886, indomethacin, Vitamin E, or diluent (control) for 15 min. The cells were then further incubated with 20 μmol/l β-oxa-23:4n-6 or diluent (control) for 60 min followed by TNF-α (125 U/200 μl medium) for 4 hr and the expression of E-selectin adhesion molecule was determined. The results are expressed as % inhibition of the suppressive effect of β-oxa-23:4n-6 and represent the mean±SEM of three separate experiments each performed in quadruplicate. * p<0.01, for significant differences between pre-treatment with inhibitor and corresponding control (one-way analysis of variance followed by the Dunnett test for multiple comparisons).
Confluent second-passage HUVEC in 96-well tissue culture plates were pre-treated with 10 μmol/l NDGA (non-selective lipoxygenase inhibitor); 10 μmol/l baicalein (a specific 12-lipoxygenase inhibitor); 500 nM MK886 (an inhibitor of the 5-lipoxygenase activating protein), […] indomethacin (a cyclooxygenase inhibitor); 10 μmol/l Vitamin E (an antioxidant); or diluent (control) for 15 min. The cells were then further incubated with 20 μmol/l β-oxa-23:4n-6 or diluent (control) for 60 min followed by TNF-α (125 U) for 4 h. The expression of E-selectin adhesion molecule was determined by ELISA. While none of the inhibitors/antioxidants affected the ability of TNF to enhance E-selectin expression on HUVEC, the ability of β-oxa 23:4n-6 to suppress the action of TNF was reduced when the cells were pre-treated with either NDGA or baicalein but not with indomethacin, Vitamin E or MK886 (FIG. 16).

CCCCC/C=C\C/C=C\CCCCCCCC(=O)O [18:2n-6, octadecadienoic acid, reference compound]
Inhibition of TNF-α-enhanced neutrophil adhesion to HUVEC [1]: no significant effect

CC(=O)Oc1ccccc1C(=O)O [Aspirin, reference compound]
% inhibition of pain response, Phase I (0-5 mins) ([2]; 300 mg/kg ip): 30% | % inhibition of pain response, Phase II (15-20 mins) ([2]; 300 mg/kg ip): 91%

CCCCCCCCCCCCCCCCCC[N+](=O)[O-] [Lx1]
Inhibition of PKC activation, isozyme δ [3]: − | Inhibition of PKC activation, isozyme ε [4]: − | Inhibition of PKC activation, isozyme α [5]: − | Inhibition of PKC activation, isozyme β2 [6]: −

CC/C=C\C/C=C\C/C=C\CCCCCCCC[N+](=O)[O-] [Lx2]
Inhibition of PKC activation, isozyme δ [3]: − | Inhibition of PKC activation, isozyme ε [4]: − | Inhibition of PKC activation, isozyme α [5]: − | Inhibition of PKC activation, isozyme β1 [7]: − | Inhibition of PKC activation, isozyme β2 [6]: +++

CCCCC/C=C\C/C=C\C/C=C\CCCCC[N+](=O)[O-] [Lx3]
Inhibition of PKC activation, isozyme δ [3]: − | Inhibition of PKC activation, isozyme ε [4]: − | Inhibition of PKC activation, isozyme α [5]: − | Inhibition of PKC activation, isozyme β1 [7]: − | Inhibition of PKC activation, isozyme β2 [6]: +++

CCCCC/C=C\C/C=C\C/C=C\C/C=C\CCCC[N+](=O)[O-] [Lx4]
Inhibition of PKC activation, isozyme δ [3]: +++ | Inhibition of PKC activation, isozyme ε [4]: − | Inhibition of PKC activation, isozyme β1 [7]: +++ | Inhibition of PKC activation, isozyme β2 [6]: +++

CC/C=C\C/C=C\C/C=C\C/C=C\C/C=C\C/C=C\CCC[N+](=O)[O-] [Lx5]
Inhibition of PKC activation, isozyme δ [3]: − | Inhibition of PKC activation, isozyme α [5]: − | Inhibition of PKC activation, isozyme β1 [7]: − | Inhibition of PKC activation, isozyme β2 [6]: −

CC(C)c1ccc2c(c1)c(SC(C)(C)C)c(CC(C)(C)C(=O)O)n2Cc1ccc(Cl)cc1 [MK886]
Effect on ability of β-oxa 23:4n-6 to suppress TNF-induced E-selectin expression [8]: not

CN1CC[C@]23c4c5ccc(O)c4O[C@H]2[C@@H](O)C=C[C@H]3[C@H]1C5 [Morphine, reference compound]
% inhibition of pain response, Phase I (0-5 mins) ([2]; 10 mg/kg ip): 85% | % inhibition of pain response, Phase II (15-20 mins) ([2]; 10 mg/kg ip): 100%

CC(Cc1ccc(O)c(O)c1)C(C)Cc1ccc(O)c(O)c1 (stereo not shown) [NDGA, nordihydroguairetic acid]
Effect on ability of β-oxa 23:4n-6 to suppress TNF-induced E-selectin expression [8]: reduced

O=c1cc(-c2ccccc2)oc2cc(O)c(O)c(O)c12 [baicalein]
Effect on ability of β-oxa 23:4n-6 to suppress TNF-induced E-selectin expression [8]: reduced

COc1ccc2c(c1)c(CC(=O)O)c(C)n2C(=O)c1ccc(Cl)cc1 [indomethacin]
Effect on ability of β-oxa 23:4n-6 to suppress TNF-induced E-selectin expression [8]: not

CCCCC/C=C\C/C=C\C/C=C\CCCCCOCC(=O)O [β-oxa-21:3n-6]
Inhibition of TNF-α-enhanced neutrophil adhesion to HUVEC [1]: inhibited their ability to be stimulated

CC/C=C\C/C=C\C/C=C\CCCCCCCCSCC(=O)O [β-thia-21:3n-3]
Inhibition of TNF-α-enhanced neutrophil adhesion to HUVEC [1]: inhibited their ability to be stimulated

CCCCC/C=C\C/C=C\C/C=C\CCCCCSCC(=O)O [β-thia-21:3n-6]
Inhibition of TNF-α-enhanced neutrophil adhesion to HUVEC [1]: inhibited their ability to be stimulated

CCCCC/C=C\C/C=C\C/C=C\C/C=C\CCCCSCC(=O)O [β-thia-23:4n-6]
Inhibition of TNF-α-enhanced neutrophil adhesion to HUVEC [1]: inhibited their ability to be stimulated | Inhibition of TNF-α-enhanced neutrophil adhesion to HUVEC ([1]; listed as β-thia 23:4n-6): less active than this β-oxa compound

Vitamin E
Effect on ability of β-oxa 23:4n-6 to suppress TNF-induced E-selectin expression [8]: not
